Broadly, the pKd is the negative decadic logarithm of the Kd, by convention in mol/L. Broadly, the pIC50 is −log10 of the IC50, conventionally taken in molar units.

The nature of experiment [1]: Displacement of thiazole orange from ds26 DNA (unknown origin) preincubated for 10 mins measured after 3 mins by fluorescence spectra analysis.
Another experiment has as its system unidentified. The experiment can be described thus: Selectivity ratio of ligand concentration required to displace thiazole orange from 22AG DNA (unknown origin) to same extent as percentage displacement from ds26 DNA (unknown origin) at 2.5 uM of compound.
Experiment [2] is described as follows: Displacement of thiazole orange from 22AG DNA (unknown origin) preincubated for 10 mins measured after 3 mins by fluorescence spectra analysis.
The subject of experiment [3] is MCF7. The experiment can be described thus: Cytotoxicity against human MCF7 cells assessed as reduction of cell viability at 2.5 uM after 24 hrs by MTT assay. The experiment is classed as functional. Background: Formazan colour is commonly taken as a measure of viable cells.
In experiment [4] the test system is MCF7. Kind of experiment: Cytotoxicity against human MCF7 cells assessed as reduction of cell viability after 10 days by MTT assay relative to control. In kind it is functional.
Experiment [5] concerns MCF7. The experiment can be described thus: Cytotoxicity against human MCF7 cells assessed as reduction of cell viability after 10 days by MTT assay. The experiment is classed as functional, cell-based. The note with it: MCF7, 240 h.
For the next experiment, the system named is Caco-2. Kind of experiment: Induction of apoptosis in human Caco2 cells after 48 hrs by MTT assay. The experiment is classed as functional, cell-based.
The test system of experiment [6] is MCF7. The experiment can be described thus: Induction of apoptosis in human MCF7 cells after 48 hrs by MTT assay. The experiment is classed as functional, cell-based.

pIC50, pKd: −log10 of the molar value. Active and inactive are the calls of the source. No cut-off for these calls is given here. Bounds are passed on as bounds.

In the case of `O=C(/C=C/c1c2ccccc2c(/C=C/C(=O)NC(CO)(CO)CO)c2ccccc12)NC(CO)(CO)CO`, the negative-log Kd (pKd) in experiment [1] was 4.65. The Selectivity ratio in the experiment on unidentified is 0.
Turning to `CC(=O)CC(C)(C)NC(=O)/C=C/c1c2ccccc2c(/C=C/C(=O)NC(C)(C)CC(C)=O)c2ccccc12`, the pKd is 7.15 in experiment [2] and 6.44 in experiment [1]. In the experiment on unidentified, the Selectivity ratio came out at 5.6.
With `O=C(/C=C/c1c2ccccc2c(/C=C/C(=O)N2CCOCC2)c2ccccc12)N1CCOCC1`, in the experiment with MCF7 [3], the Activity is given as 40%. Besides, the results for the negative-log Kd (pKd) in experiment [2] and in experiment [1] were 4.70 and 6.54, respectively. Further, the Selectivity ratio in the experiment with unidentified came out at 0.
As for `COc1ccc2cc3[n+](cc2c1OC)CCc1cc2c(cc1-3)OCO2` [BERBERINE], the negative-log Kd (pKd) is 3.66 in experiment [2] and 5.75 in experiment [1]. Besides, in the experiment on unidentified, the Selectivity ratio was 0.1.
`O=C(/C=C/c1c2ccccc2c(Br)c2ccccc12)N1CCOCC1`: the pKd in experiment [2] was 6.77; in experiment [1], 5.75. Besides, the Selectivity ratio in the experiment with unidentified is 5.
For `NC(=O)/C=C/c1c2ccccc2c(/C=C/C(N)=O)c2ccccc12`, the Activity with MCF7 [4] is given as above 80%. Besides, the pIC50 in the experiment on MCF7 [5] is 5.60. The result with Caco-2 and in the experiment with MCF7 [6] was inactive. The pKd in experiment [2] is 7.52; in experiment [1] it was 5.68. For the same molecule, the Selectivity ratio in the experiment with unidentified was 33.3.

(Values after ChEMBL document CHEMBL3217573, “Diacrylamides as selective G-quadruplex ligands in in vitro and in vivo assays” (Medchemcomm, 2011).)
